# Measured values taken from patent US10285963B2, “Combination of metabolic bio-energetic and nutra-epigentic regulators, nutraceutical compounds in conventional and nanotechnologies combination to revert and prevent the chronic damage accelerated cellular senescence produced by diabetes and other degenerative chronic complex diseases” (priority 2015, dated 2019).
# How the values were obtained:
# Artemia salina nauplii = Artemia salina nauplii toxicity assay; settings: for toxicity expressed as percent mortality of A. salina nauplii: any of the tested concentrations (62.5-1000 ppm)
# Source text: Artemia salina is a crustacean sensitive to a wide range of compounds with biological activity and very different chemical structures. Michael et al. (Michael A. S. et al in Science, 1956, 123: 464) and Vanhaecke et al. (Vanhaecke et al in Ecotoxicol Environ Saf 1981, 5:382) proposed its use for toxicity testing. It is a test that allows conducting practically and economically toxicity studies of different nature substances. […] This model is accepted by the FDA (Food Drug Administration) and EPA (Environmental Protection Agency in 2002), as a test for evaluating the toxicity and ecotoxicity of pharmaceutical and/or food products.
# In an Artemia salina hatcher, 0.5 g cysts of Artemia salina were hatched in artificial seawater at 37 g/L at a temperature of 27° C. with constant aeration for 24 h. In every 5 wells out of a 96-well plate, 0.1 mL of artificial seawater (37 g/L) was applied with a single-channel pipette with ten nauplii, separated from the hatcher and counted one by one to achieve an exact separation of 10 nauplii. […] Using a multichannel micropipette, 0.1 mL of the solutions prepared in the plate were added, achieving a final concentration of 62.5, 125, 250, 500 and 1000 ppm per five wells of nauplii. For blank samples, 10 untreated nauplii were placed in a 0.2 mL volume of artificial seawater (37 g/L). The microplate was incubated at 25° C. for 24 h. After incubation period, A. salina nauplii alive and dead were counted with a stereoscopic microscope and % mortality was determined. Toxicity was expressed as percent mortality of A. salina nauplii: 0-10% non-toxic, moderately toxic 11-50%, 51-90% highly toxic and 100% extremely toxic, considering the Gualdron et al, scale. (Gualdron R. et al in Chem Rev. Col. Farm, 1997, 26: 15 to 19). […] Data were analyzed with the Statistical Package Graph Pad Prism version 6, by analysis of variance (ANOVA) test and Tukey multiple comparisons (p<0.05).
# [1] = system: human embryonic kidney (HEK-293) cell line; test: MTT microdilution assay, HEK-293; assay type: cell-based
# Source text: (§1) MTT method, based on reduction of 3-(4,5-dimethylthiazol-2-yl)-2,5-diphenyltetrazolium bromide, is an assay that reflects the metabolic function of cells. MTT is a yellow dye reduced to formazan (blue dye) by mitochondrial dehydrogenases, which are part of the respiratory chain of viable cells (Hwa et al., 2015). It is used in a quantitative colorimetric microdilution method applied for determination of survival and proliferative capacity of mammalian cells (Mosmann T. in J. Immunol Methods, 1983, 65 (1-2): 55). […]
# (§2) Dulbecco's modified Eagle Minimum Essential culture Medium/F12 (DMEM/F12) was used, supplemented with 10% fetal bovine serum (FBS) and 1 mL of a mixture of antibiotics (200,000 IU of penicillin and 0.5 g streptomycin). […] Subsequently MTT solution was removed, retaining the formed formazan salts, then they added 0.1 mL of isopropyl alcohol and the absorbance at 540 nm was read in a Synergy HT microplate reader with GEN 5 embedded software. In the calculation of cell viability percentage detected absorbance in wells with cells proliferated in untreated culture medium were considered 100% of living cells. […] Results of data analysis are expressed as the average±standard deviation (FIG. 5).
# [2] = system: Vero cell line (African green monkey kidney cells); test: MTT microdilution assay, Vero; assay type: cell-based
# Source text: as §1, §2
# [3] = system: human peripheral blood mononuclear cells (lymphocytes) DNA; settings: 0.1 mM, positive control, 24 h
# Protocol: By using culture medium cell concentration was adjusted to 1×10^6 cells/mL. Cells obtained were seeded in Eppendorf vials at a density of 3×10^4 cells/mL and incubated at 37° C. and 5% CO2 for 24 hours to stabilize. […] Cells were incubated for 24 h to be later precipitated by centrifugation at 1200 rpm for 5 min and treated with 0.1 mL trypsin (0.25%) for 3 min at 37° C. and 5% CO2. Cells were resuspended in 1 mL of RPMI 1640 medium and centrifuged again at 1200 rpm for 5 min, the supernatant was discarded and the cells were incubated with 1 mL of lysis solution (NaCl 2.5 M, Na2EDTA 100 mM, Tris HCl 10 mM, and 1% Triton) at 4° C. for 24 h. After 24 h, vials were centrifuged at 1200 rpm at 4° C. […] The generated images were acquired with a high resolution digital camera (FIG. 4, above) and analyzed with ImageQuant TL v8.1 software. The area of the comet head representing intact DNA was quantified by densitometric analysis and plotted as percentage versus the negative control (culture medium) (FIG. 4, in the middle). The tail of the comet representing the damaged DNA was measured in millimeters and represented as the percentage of the positive control (H2O2). Data were expressed as mean±mean standard deviation (FIG. 4, below). Data obtained were analyzed by analysis of variance (ANOVA) using in case of any difference a post-hoc Tukey test using GraphPad Prism v6.0 software, at p<0.05.
# [4] = system: peripheral human lymphocytes; test: Lymphocyte proliferation and viability, trypan blue count; assay type: cell-based; settings: positive control 1.25 mg/mL, 48 h
# Source text: For the assay, a biological in vitro system using mononuclear cells culture from peripheral blood mononuclear cells—peripheral human lymphocytes was used. The system was selected because they form from 25 to 35% of leukocytes and they are the main immune response promoting cells since they recognize foreign antigens and activate cellular immune response mediators, causing proliferation or suppression phenomena before endogenous or exogenous stimuli. These cultures are widely used in research to evaluate the effects of various compounds (Marti-Centelles R. et al in J. Med Chem Eur, 2015, 103: 488). […] As a positive control the test with concanavalin A (Con A) was performed, which is a globular plant-origin protein that induces mitosis in lymphocytes causing clonal proliferation (Ganem and Martin Gonzalez Baez F A O. in Universo Diagnóstico, 2000, 1 (1):1). Assay with RPMI-1640 (medium without treatment) was performed as blank. […]
# Optical light microscope with 40× objective was used. Cells were counted with Neubauer chamber using 0.05 mL suspension of each resuspended samples in 0.4 mL of PBS 1× and 0.05 mL of trypan blue. […] The results were analyzed by the variance analysis test (ANOVA) with SPSS version 16 and then Dunnet's test was applied to discern whether a difference between control and experimental treatments was present, taking values of p<0.05 as significant.
# [5] = system: rabbits with alloxan-induced diabetes; test: Alloxan-induced diabetes in rabbits; assay type: in vivo
# Protocol: (§3) In all tests carried out on laboratory animals the treatment was orally administered in a weight-dependent measure, through orogastric cannula, after conventional feed consumption for rodents and lagomorphs (Commission of the European Communities in Off. J. Eur. Comm (L 383 A), 1992, 35: 110), respectively.
# (§4) Body weight was determined and recorded at the beginning and end of the experiment. Also in case of rabbits, clinical laboratory tests were performed before and after each test: blood biometry, blood chemistry and activity of transaminase enzymes: aspartate aminotransferase (AST), alanine aminotransferase (TGP) and transpeptidase gamma glutamyl transaminase (GGT). In rats, these parameters were determined only at the end of testing to prevent blood loss. Finally, we proceeded with the euthanasia step to animals applying a series of anesthetics and potassium chloride (KCl). Subsequently, an organ and fundamental tissue macroscopic examination and necropsy was conducted, primarily including heart, kidney, spleen, pancreas, lung, liver, ovaries and testicles, according to each case. Samples taken were sent to carry out a histopathological study.
# (§5) In addition, the test in rats and rabbits with alloxan-induced diabetes was performed. […] Insulin glargine was administered subcutaneously at a dose of 0.7 U/kg in a single morning administration every 24 h.
# [6] = system: rats with alloxan-induced diabetes; test: Alloxan-induced diabetes in rats; assay type: in vivo
# Protocol: as §3, §4, §5
# [7] = positive control, 1.95-2000 ppm
compound,measurement,setting,value
"NCC(=O)O [Glycine, glycine]",toxicity expressed as percent mortality of A. salina nauplii,Artemia salina nauplii; 24 h,toxicity free
Triton X-100,LC50,"[1]; HEK-293, MTT, 24 h",764.10±21.93 ppm
same,effect on absorbance/viability,[1]; [7],dose-depending effect
same,LC50,"[2]; Vero, MTT, 24 h",42.80±1.60 ppm
same,effect on absorbance/viability,[2]; [7],dose-depending effect
OO [hydrogen peroxide],DNA damage (genotoxicity),[3],much more rapid dsDNA diffusion
N=C(N)NCCC[C@H](N)C(=O)O [arginine],toxicity expressed as percent mortality of A. salina nauplii,Artemia salina nauplii; 24 h,toxicity free
"3, 5, 4-trihydroxy-trans-stilbene [resveratrol]",mortality of A. salina nauplii,"Artemia salina nauplii; 62.6 ppm solution, 24 h",38%
same,toxicity class (percent mortality scale),"Artemia salina nauplii; 62.6 ppm solution, 24 h",moderate toxicity
same,LC50 (lethal concentration to 50% nauplii),Artemia salina nauplii; 24 h,89.48 ppm
same,toxicity class (percent mortality scale),Artemia salina nauplii; from the LC50 concentration (89.48 ppm),highly toxic (51-90% highly toxic)
concanavalin A,increase in the number of cells,[4],65%
same,number of cells,[4],"9,101,667 cells/mL"
insulin,kidney histology,[5]; diabetic female rabbit treated only with insulin,early diabetic nephropathy
same,pancreas histology,[5]; diabetic female rabbit treated only with the named treatment,complete destruction of the organ
same,"kidney histology, tubular component",[5]; diabetic male rabbit treated only with insulin,changes by coagulative necrosis and nuclei pyknosis
same,macroscopic pancreatic alterations at autopsy,"[5]; diabetic rabbits, single treatment only",most severe pancreatic alterations
same,capillary glucose,"[6]; diabetic rats treated only with insulin, up to 19 days",increase in the tendency for capillary glucose
same,weight change,"[6]; diabetic rats, pure insulin, compared to other groups",tendency of weight loss decrease is much more visible
same,macroscopic pancreatic alterations at autopsy,"[6]; diabetic rats, single treatment only",most severe pancreatic alterations
